Legend:
[1] = tested on: IL-1β, IL-6, MCP-1, IL-12β, TNF-α, IL-15, Mstn-1; assay: Proinflammatory cytokines and Mstn-1 in quadriceps by qRT-PCR; type: in vivo, mouse
[2] = tested on: MBNL1 protein levels in DM1 cells; assay: MBNL1 protein levels by QDB in DM1 cells after gymnotic delivery; type: cell-based, human; settings: for MBNL1 protein levels vs untreated DM1 cells: gymnosis at the EC50 concentration of each compound; for MBNL1 fold change: gymnotic delivery
Protocol: Immortalized MyoD-inducible (doxycycline) DM1 and control fibroblasts were kindly provided by Dr Furling (Institute of Myology, Paris, France).[38] For the activity assay, cells were seeded in 6-well plates at a density of 8 × 10^4 cells/well and grown in DMEM with 4.5 g/L glucose, 1% P/S, and 10% FBS (Sigma, St. Louis, MO). To transdifferentiate fibroblasts into myoblasts by inducing MyoD expression, the cells were plated in muscle differentiation medium containing DMEM with 4.5 g L^−1 glucose, 1% P/S, 2% horse serum, 1% apo-transferrin (10 mg mL^−1), 0.1% insulin (10 mg mL^−1), and 0.02% doxycycline (10 mg mL^−1). In all cases, the cells were grown at 37°C in a humidified atmosphere containing 5% CO2. Transdifferentiation was induced at day 0, and transfection was performed by lipofection with X-tremeGENE HP (Roche, Basel, Switzerland) 24 h later, with antimiRs and test compounds in the cell medium at different concentrations (from 0.4 nM to 5 μM). The medium was replaced with fresh differentiation medium 4 h afterward. In the gymnosis assay, test compounds were added to the culture medium only at the corresponding EC50 concentration. Cells were collected on day 4 of differentiation and were processed for protein extraction.
A 96-well plate QDB assay was used[87] to determine MBNL1 protein levels in all replicates and concentrations of each ON tested. This technique allows for high-throughput screening of low protein concentration samples over conventional western blot (WB) (Figure S9).[88] Cell samples (1 μg/well) and mice samples (2 μg/well) were prepared with 4× loading buffer, denatured (100°C for 5 min) and loaded in QDB plates (Quanticision Diagnostics, Research Triangle Park, NC). For the quantification of in vitro samples, the QDB was performed exactly as described in Moreno et al.[87] Each cell sample was loaded in quadruplicate in two different plates; one was used to detect MBNL1 (it was incubated overnight with primary mouse anti-MBNL1 [1:1,000, Abcam, ab77017]) and the other for GAPDH (it was incubated overnight with primary mouse anti-GAPDH [1:500, Santa Cruz, clone G-9]), which was used here as an endogenous control. For Mbnl1 quantification in mouse muscle tissues, we implemented the following modifications: each sample was loaded in quadruplicate on three different plates. One was used to detect Mbnl1 with a mouse MB1a(4A8) antibody (DSHB, Iowa City, IA) using a 1:200 dilution. A second plate was used to quantify tubulin (endogenous normalization control) with a mouse 12G10 antibody (DSHB) using a 1:1,000 dilution. A third plate was used to quantify IgG signal (negative control to subtract background) using an anti-mouse-IgG secondary antibody (Sigma-Aldrich) at 1:3,500 dilution. This subtraction was necessary due to an unspecific IgG signal could be observed in mouse samples (Figures S10A–S10D). All primary antibodies were detected using horseradish peroxidase-conjugated anti-mouse-IgG secondary antibody (1:5,000 for the anti-mouse plate, 1:2,000 for cell plates, and 1:3,500 for mouse plates [Sigma-Aldrich, MO]). Immunoreactive bands were detected using Pierce ECL Western reagent (Thermo Scientific), and luminescence levels were determined using an Infinite M200 PRO plate reader (Tecan). The validity of this correction for QDB quantification of mouse samples was confirmed by performing a series of experiments determining both the window of linearity of the assay (2–5 μg protein, Figures S10A–S10B) and the comparison with data obtained by WB in a subset of samples (Figures S10E–S10H), obtaining a correlation of 0.9927 for MBNL1 and 0.8678 for tubulin (in the case of quadriceps), and 0.9821 for MBNL1 and 0.9699 for tubulin (in gastrocnemius). For WB assay in quadriceps (Figure S10I), samples were loaded in pools of each treatment to have a representative WB of all the treatments tested. WB assay was performed as described previously.[20]

[3] = tested on: HSALR mice; assay: Electromyography, myotonia grade; type: in vivo, mouse; settings: 9.2 mg/kg (mean) i.v. every 2 weeks x3, 5-point scale, quadriceps of both hind limbs
Text: (§1) Mouse handling and experimental procedures followed the European law regarding laboratory animal care and experimentation (2003/65/C.E.) and were approved by Conselleria de Agricultura, […] (reference no. A1539961490857). We used homozygous transgenic HSA^LR (line 20 b) mice,[90] which were kindly provided by Dr Thornton (Rochester, NY) and were housed and bred in our animal facility. […] The mice were randomly allocated to the different treatments as follows: in each cage, each mouse was ear-marked as it was taken out, and each mouse was then assigned to a different treatment. Animals were injected biweekly intravenously with 150 μL of 1× PBS vehicle (controls; […] Mice were sacrificed 45 days after the first injection and the tissues of interest were frozen in liquid nitrogen for the molecular and histological assays. All the mice used in this study ranged from 5 to 5.5 months of age and all were males. Electromyography was performed before the treatment, at the halfway point and time of sacrifice under general anesthesia, as described previously.[18] The determination was performed blindly to eliminate bias.

[4] = tested on: miR-23b; assay: Functional miR-23b levels in gastrocnemius and quadriceps by qRT-PCR; type: in vivo, mouse; settings: HSALR mice, 9.2 mg/kg (mean) i.v. every 2 weeks x3, day 45, vs PBS-treated HSALR
Protocol: as §1, with “miRNA expression in muscle tissues was quantified using specific miRCURY-locked nucleic acid microRNA PCR primers (QIAGEN) according to the manufacturer's instructions. […] Expression levels were measured using a QuantStudio 5 Real-Time PCR System (Applied Biosystems, Foster City, CA). […] Mouse” for “Mouse”, “males.” for “males. Electromyography was performed before the treatment, at the halfway point and time of sacrifice under general anesthesia, as described previously.[18] The determination was performed blindly to eliminate bias.”

[5] = HSALR mice, 9.2 mg/kg (mean) i.v. x3, day 45, qRT-PCR

Substance: 9b2-23b (antisense GGUAAUCCCUGGCAAUGUGAU; all phosphorodiamidate morpholino (PMO), T or U not given here; Pip9b2 peptide conjugated)
- Mstn-1 expression in quadriceps [1, 5]: downregulation of Mstn-1
- IL1β Quads (2^-ddCt qPCR assays) ([1]; mouse, in vivo): 0.49
- IL6 Quads (2^-ddCt qPCR assays) ([1]; mouse, in vivo): 0.39
- IL12β Quads (2^-ddCt qPCR assays) ([1]; mouse, in vivo): 0.57
- IL15 Quads (2^-ddCt qPCR assays) ([1]; mouse, in vivo): 2.25
- MCP-1 Quads (2^-ddCt qPCR assays) ([1]; mouse, in vivo): 0.55
- TNF-α Quads (2^-ddCt qPCR assays) ([1]; mouse, in vivo): 0.26

Substance: 6aKC-218 (antisense ACAUGGUUAGAUCAAGCACAA; all phosphorodiamidate morpholino (PMO), T or U not given here; Pip6aKC peptide conjugated)
- MBNL1 protein levels vs untreated DM1 cells [2]: significant increases observed in MBNL1 protein levels
- MBNL1 fold change ([2]; 1 μM): ~2 fold

Substance: TCTTACCTCAGTTACAATTTA-Pip9b2 [Scramble, reference compound]
- myotonia (electromyography), change at day 45 [3]: myotonia remained unchanged
- IL-6 and IL-15 expression in quadriceps [1, 5]: reduced levels of IL-6 and IL-15
- Mstn-1 expression in quadriceps [1, 5]: not detected
- levels of functional miR-23b [4]: did not reduce functional levels

Substance: 6aKC-23b (antisense GGUAAUCCCUGGCAAUGUGAU; all phosphorodiamidate morpholino (PMO), T or U not given here; Pip6aKC peptide conjugated)
- MBNL1 protein levels vs untreated DM1 cells [2]: significant increases observed in MBNL1 protein levels
- MBNL1 fold change ([2]; 200 nM): ~2.5 fold

Substance: 9b2-218 (antisense ACAUGGUUAGAUCAAGCACAA; all phosphorodiamidate morpholino (PMO), T or U not given here; Pip9b2 peptide conjugated)
- MBNL1 protein levels vs untreated DM1 cells [2]: significant increases observed in MBNL1 protein levels

Substance: 9b2KC-23b (antisense GGUAAUCCCUGGCAAUGUGAU; all phosphorodiamidate morpholino (PMO), T or U not given here; Pip9b2KC peptide conjugated)
- Mstn-1 expression in quadriceps [1, 5]: downregulation of Mstn-1
- MBNL1 levels, gymnosis compared with transfection ([2]; each compound at its EC50 concentration): identical MBNL1 modulation results by transfection and gymnosis
